Reference: US10798941B2, “Microbiocidal oxadiazole derivatives” (SYNGENTA PARTICIPATIONS AG, priority 2016, dated 2020)

Assays:
[1] = system: Puccinia recondita f. Sp. Tritici; test: Puccinia recondita f. sp. tritici / wheat / leaf disc curative (brown rust); assay type: in vivo; details: foliar, 144 h, 200 ppm in the applied formulation, wheat leaf segments cv. Kanzler, applied 1 day after inoculation, assessed 6 to 8 days after application, vs untreated, read-out: disease control
Procedure: Leaf disks or leaf segments of various plant species are cut from plants grown in a greenhouse. The cut leaf disks or segments are placed in multiwell plates (24-well format) onto water agar. The leaf disks are sprayed with a test solution before (preventative) or after (curative) inoculation. Compounds to be tested are prepared as DMSO solutions (max. 10 mg/ml) which are diluted to the appropriate concentration with 0.025% Tween20 just before spraying. The inoculated leaf disks or segments are incubated under defined conditions (temperature, relative humidity, light, etc.) according to the respective test system. A single evaluation of disease level is carried out 3 to 14 days after inoculation, depending on the pathosystem. Percent disease control relative to the untreated check leaf disks or segments is then calculated.
Wheat leaf segments cv. Kanzler are placed on agar in multiwell plates (24-well format). The leaf segments are then inoculated with a spore suspension of the fungus. Plates were stored in darkness at 19° C. and 75% relative humidity. The formulated test compound diluted in water was applied 1 day after inoculation. The leaf segments were incubated at 19° C. and 75% relative humidity under a light regime of 12 hours light/12 hours darkness in a climate cabinet and the activity of a compound was assessed as percent disease control compared to untreated when an appropriate level of disease damage appears in untreated check leaf segments (6 to 8 days after application).
The following compounds at 200 ppm in the applied formulation give at least 80% disease control in this test when compared to untreated control leaf disks under the same conditions, which show extensive disease development.

[2] = system: Puccinia recondita f. Sp. Tritici; test: Puccinia recondita f. sp. tritici / wheat / leaf disc preventative (brown rust); assay type: in vivo; details: foliar, 168 h, 200 ppm in the applied formulation, wheat leaf segments cv. Kanzler, preventative, inoculated 1 day after application, assessed 7 to 9 days after application, vs untreated, read-out: disease control
In short: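 Preventative leaf-segment test: spray application of diluted formulated compound on wheat cv. Kanzler, spore inoculation after 1 day. Percent control relative to untreated segments rated 7 to 9 days post-application, with incubation at 19° C, 75% relative humidity, 12 h photoperiod.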

[3] = system: Glomerella Lagenarium (Colletotrichum Lagenarium); test: Glomerella lagenarium (Colletotrichum lagenarium) liquid culture / cucumber / preventative (anthracnose); assay type: cell-based; details: Colletotrichum orbiculare; 20 ppm in the applied formulation; liquid culture in PDB, 24° C., inhibition of growth measured photometrically 3 to 4 days after application, vs untreated; read-out: disease control
In short: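 Conidia from cryogenic storage were mixed into potato dextrose broth. This was added to compound diluted from DMSO into 0.025% Tween20, tested at 20 ppm. Plates were incubated in the dark at 24 °C and 96% relative humidity, and growth was read photometrically after 2–7 days as % activity versus untreated check.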

N#Cc1ncn(Cc2ccc(-c3noc(C(F)(F)F)n3)cn2)c1C#N [Compound 1.135, 1-[[5-[5-(trifluoromethyl)-1,2,4-oxadiazol-3-yl]-2-pyridyl]methyl]imidazole-4,5-dicarbonitrile]
≥ 80%: pest or weed control at 200 ppm [1] | pest or weed control at 200 ppm [2] | inhibition of growth at 20 ppm [3]

Fc1cc(-c2noc(C(F)(F)F)n2)ccc1Cn1cc(I)cn1 [Compound 1.131, 3-[3-fluoro-4-[(4-iodopyrazol-1-yl)methyl]phenyl]-5-(trifluoromethyl)-1,2,4-oxadiazole]
≥ 80%: pest or weed control at 200 ppm [1] | pest or weed control at 200 ppm [2] | inhibition of growth at 20 ppm [3]

FC(F)(F)c1nc(-c2ccc(Cn3cc(I)cn3)nc2)no1 [Compound 1.144, 3-[6-[(4-iodopyrazol-1-yl)methyl]-3-pyridyl]-5-(trifluoromethyl)-1,2,4-oxadiazole]
≥ 80%: pest or weed control at 200 ppm [1] | pest or weed control at 200 ppm [2] | inhibition of growth at 20 ppm [3]

FC(F)(F)c1nc(-c2ccc(Cn3cnc(-c4ccccc4)c3)cc2)no1 [Compound 1.82, 3-[4-[(4-phenylimidazol-1-yl)methyl]phenyl]-5-(trifluoromethyl)-1,2,4-oxadiazole]
≥ 80%: pest or weed control at 200 ppm [1] | pest or weed control at 200 ppm [2] | inhibition of growth at 20 ppm [3]

N#Cc1cnn(Cc2ccc(-c3noc(C(F)(F)F)n3)cc2)c1 [Compound 1.76, 1-[[4-[5-(trifluoromethyl)-1,2,4-oxadiazol-3-yl]phenyl]methyl]pyrazole-4-carbonitrile]
≥ 80%: pest or weed control at 200 ppm [1] | pest or weed control at 200 ppm [2] | inhibition of growth at 20 ppm [3]

Fc1cc(-c2noc(C(F)(F)F)n2)ccc1Cn1cnc(Cl)c1Cl [Compound 1.121, 3-[4-[(4,5-dichloroimidazol-1-yl)methyl]-3-fluoro-phenyl]-5-(trifluoromethyl)-1,2,4-oxadiazole]
≥ 80%: pest or weed control at 200 ppm [1] | pest or weed control at 200 ppm [2] | inhibition of growth at 20 ppm [3]

Cc1cn(Cc2ccc(-c3noc(C(F)(F)F)n3)cc2)cn1 [Compound 1.83, 3-[4-[(4-methylimidazol-1-yl)methyl]phenyl]-5-(trifluoromethyl)-1,2,4-oxadiazole]
≥ 80%: pest or weed control at 200 ppm [1] | pest or weed control at 200 ppm [2] | inhibition of growth at 20 ppm [3]

N#Cc1ncn(Cc2ccc(-c3noc(C(F)(F)F)n3)cc2)c1C#N [Compound 1.45, 1-[[4-[5-(trifluoromethyl)-1,2,4-oxadiazol-3-yl]phenyl]methyl]imidazole-4,5-dicarbonitrile]
≥ 80%: pest or weed control at 200 ppm [1] | pest or weed control at 200 ppm [2] | inhibition of growth at 20 ppm [3]

CON=C1CCN(Cc2ccc(-c3noc(C(F)(F)F)n3)cc2)C1 [Compound 1.292, N-methoxy-1-[[4-[5-(trifluoromethyl)-1,2,4-oxadiazol-3-yl]phenyl]methyl]pyrrolidin-3-imine]
≥ 80%: pest or weed control at 200 ppm [1] | pest or weed control at 200 ppm [2] | inhibition of growth at 20 ppm [3]

COC(=O)c1ncn(Cc2ccc(-c3noc(C(F)(F)F)n3)cc2F)c1C(=O)OC [Compound 1.118, dimethyl 1-[[2-fluoro-4-[5-(trifluoromethyl)-1,2,4-oxadiazol-3-yl]phenyl]methyl]imidazole-4,5-dicarboxylate]
≥ 80%: pest or weed control at 200 ppm [1] | pest or weed control at 200 ppm [2] | inhibition of growth at 20 ppm [3]
